Measurements published in patent publication US11034725B2, “Compositions and methods for treating cardiovascular disease” (Genentech, Inc., priority 2016, dated 2021).
Square brackets hold non-standard residues; d marks the D form. Peptide text beside a SMILES is read from it. * marks the point of attachment. Propanoyl(3-indol-3-yl) = O=C(CCc1c[nH]c2ccccc12)*; Butyryl(4-indol-3-yl) = O=C(CCCc1c[nH]c2ccccc12)*; Butanoyl(4-(4-HOPh)) = O=C(CCCc1ccc(O)cc1)*; Desaminohistidyl = O=C(CCc1c[nH]cn1)*; Pentanoyl(5-Ph) = O=C(CCCCc1ccccc1)*; X17 = O=C([C@H]1C[C@@H]1c1cccnc1)*; hArg = N=C(N)NCCCC[C@H](N)C(=O)O; X39 = O=C(C1CCC(c2ccccc2)CC1)*; X6 = O=C(Cn1ccc(=O)[nH]c1=O)*; X11 = O=C(CCCOc1ccc(Br)cc1)*; X19 = Cc1cc(C)n(CCC(=O)*)n1; X25 = COc1cc(CCC(=O)*)ccc1O; X40 = CC(CC(=O)*)CC(C)(C)C; X10 = Nc1cccc(CCC(=O)*)c1; X29 = Nc1ccc(CCC(=O)*)cc1; X33 = CN1CCN(CCC(=O)*)CC1; Cbz = O=C(OCc1ccccc1)*; Pentanoyl = CCCCC(=O)*; X32 = O=C(CCN1CCOCC1)*; X41 = O=C(CCn1cncn1)*; GABA = NCCCC(=O)O

Columns and labels:
[1] = target: T1, PCSK9Δhelix (Homo sapiens, UniProt Q8NBP7); test: PCSK9Δhelix/Ab20 TR-FRET binding assay; conditions: TR-FRET; Table 8E, additional compounds; read-out: PCSK9Δhelix/Ab20 IC50
T1 construct: Human PCSK9 construct M1-Q692 with an engineered TEV site (residue deletion Y166, R167); made in house; host or cells: CHO
T1 sequence (Q8NBP7 with tags, fused parts or gaps limits assumed): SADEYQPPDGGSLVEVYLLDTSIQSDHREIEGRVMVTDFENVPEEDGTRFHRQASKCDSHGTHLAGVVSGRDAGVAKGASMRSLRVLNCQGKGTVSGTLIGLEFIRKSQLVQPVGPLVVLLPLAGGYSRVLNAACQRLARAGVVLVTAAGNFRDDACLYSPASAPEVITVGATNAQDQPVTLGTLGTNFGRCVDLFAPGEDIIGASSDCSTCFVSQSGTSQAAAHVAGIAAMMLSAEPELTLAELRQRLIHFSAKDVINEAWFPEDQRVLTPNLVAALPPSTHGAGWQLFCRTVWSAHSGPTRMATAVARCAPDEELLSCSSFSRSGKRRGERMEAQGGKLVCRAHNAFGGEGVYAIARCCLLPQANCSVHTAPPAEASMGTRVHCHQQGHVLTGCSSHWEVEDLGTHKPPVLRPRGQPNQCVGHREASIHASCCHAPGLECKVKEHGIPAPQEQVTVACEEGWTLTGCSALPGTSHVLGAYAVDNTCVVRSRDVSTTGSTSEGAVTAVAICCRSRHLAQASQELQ
T1 sequence (Q8NBP7 31-152 partner limits assumed): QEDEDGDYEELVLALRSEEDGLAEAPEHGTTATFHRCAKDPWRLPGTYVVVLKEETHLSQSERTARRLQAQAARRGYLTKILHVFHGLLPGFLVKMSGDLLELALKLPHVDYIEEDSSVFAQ

[2] = target: PCSK9 (Homo sapiens, UniProt Q8NBP7); test: PCSK9/EGF(A) TR-FRET binding assay; conditions: TR-FRET; Table 8E, additional compounds; read-out: PCSK9/EGF(A) IC50
Chain of PCSK9 (Q8NBP7 153-692): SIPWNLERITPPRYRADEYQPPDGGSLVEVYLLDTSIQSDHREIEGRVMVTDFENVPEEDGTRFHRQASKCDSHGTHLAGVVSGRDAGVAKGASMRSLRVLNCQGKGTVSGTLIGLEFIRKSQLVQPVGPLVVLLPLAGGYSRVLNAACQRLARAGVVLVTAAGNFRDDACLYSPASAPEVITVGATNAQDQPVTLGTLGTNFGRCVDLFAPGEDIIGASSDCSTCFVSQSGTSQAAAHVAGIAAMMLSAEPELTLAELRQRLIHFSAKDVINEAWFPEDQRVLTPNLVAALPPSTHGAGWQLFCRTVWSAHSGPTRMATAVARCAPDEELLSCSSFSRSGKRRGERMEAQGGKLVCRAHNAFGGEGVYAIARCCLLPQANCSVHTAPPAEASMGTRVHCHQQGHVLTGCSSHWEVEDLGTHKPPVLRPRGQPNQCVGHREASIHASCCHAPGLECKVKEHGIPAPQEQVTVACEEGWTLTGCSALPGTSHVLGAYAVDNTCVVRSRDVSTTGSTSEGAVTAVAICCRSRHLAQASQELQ
Chain of PCSK9 (Q8NBP7 31-152 partner limits assumed): as the sequence (Q8NBP7 31-152 partner limits assumed) above

Row | SMILES | IC50 [1] | IC50 [2]
1 | CC[C@H](C)[C@H](NC(=O)[C@H](CCCCNC(=N)N)NC(=O)[C@@H](NC(=O)[C@H](CC(C)C)NC(=O)[C@H](CC(N)=O)NC(=O)[C@H](Cc1c[nH]c2ccccc12)NC(=O)CCc1ccc(O)c(OC)c1)C(C)C)C(=O)NCC(=O)N[C@@H](CC(N)=O)C(=O)N[C@@H](CCCNC(=N)N)C(N)=O [Compound 240] (X25-WNLV[hArg]IGNR-NH2) | 0.92 µM | 31 µM
2 | CC[C@H](C)[C@H](NC(=O)[C@H](CCCNC(=N)N)NC(=O)[C@@H](NC(=O)[C@H](CC(C)C)NC(=O)[C@H](CC(N)=O)NC(=O)[C@H](Cc1c[nH]c2ccccc12)NC(=O)CCCCc1ccccc1)C(C)C)C(=O)NCC(=O)N[C@@H](CC(C)C)C(=O)N[C@@H](CC(C)C)C(=O)N[C@@H](CCCNC(=N)N)C(N)=O [Compound 146] ({Pentanoyl(5-Ph)}-WNLVRIGLLR-NH2) | 1.7 µM | 11 µM
3 | CC[C@H](C)[C@H](NC(=O)[C@H](CCCNC(=N)N)NC(=O)[C@@H](NC(=O)[C@H](CC(C)C)NC(=O)[C@H](CC(N)=O)NC(=O)[C@H](Cc1c[nH]c2ccccc12)NC(=O)CCCc1c[nH]c2ccccc12)C(C)C)C(=O)NCC(=O)N[C@@H](CC(C)C)C(=O)N[C@H](C(=O)N[C@@H](CCCNC(=N)N)C(N)=O)[C@@H](C)O [Compound 190] ({Butyryl(4-indol-3-yl)}-WNLVRIGLTR-NH2) | 7 µM | 30 µM
4 | CC[C@H](C)[C@H](NC(=O)[C@H](CCCNC(=N)N)NC(=O)[C@@H](NC(=O)[C@H](CC(C)C)NC(=O)[C@H](CC(N)=O)NC(=O)[C@H](Cc1c[nH]c2ccccc12)NC(=O)CCN1CCN(C)CC1)C(C)C)C(=O)NCC(=O)N[C@@H](CC(C)C)C(=O)N[C@@H](CC(C)C)C(=O)N[C@@H](CCCNC(=N)N)C(N)=O [Compound 140] (X33-WNLVRIGLLR-NH2) | 26 µM | ≥ 50 µM
5 | CC[C@H](C)[C@H](NC(=O)[C@H](CCCNC(=N)N)NC(=O)[C@@H](NC(=O)[C@H](CC(C)C)NC(=O)[C@H](CC(N)=O)NC(=O)[C@H](Cc1c[nH]c2ccccc12)NC(=O)Cn1ccc(=O)[nH]c1=O)C(C)C)C(=O)NCC(=O)N[C@@H](CC(C)C)C(=O)N[C@@H](CC(C)C)C(=O)N[C@@H](CCCNC(=N)N)C(N)=O [Compound 143] (X6-WNLVRIGLLR-NH2) | 23 µM | ≥ 50 µM
6 | CC[C@H](C)[C@H](NC(=O)[C@H](CCCCNC(=N)N)NC(=O)[C@@H](NC(=O)[C@H](CC(C)C)NC(=O)[C@H](CC(N)=O)NC(=O)[C@H](Cc1c[nH]c2ccccc12)NC(=O)[C@H](N)Cc1ccc(O)cc1)C(C)C)C(=O)NCC(=O)N[C@@H](CC(C)C)C(=O)N[C@@H](CC(C)C)C(=O)N[C@@H](CCCNC(=N)N)C(N)=O [Compound 223] (H-[dY]WNLV[hArg]IGLLR-NH2) | 1.4 µM | 21 µM
7 | CC[C@H](C)[C@H](NC(=O)[C@H](CCCNC(=N)N)NC(=O)[C@@H](NC(=O)[C@H](CC(C)C)NC(=O)[C@H](CC(N)=O)NC(=O)[C@H](Cc1c[nH]c2ccccc12)NC(=O)CCc1cccc(N)c1)C(C)C)C(=O)NCC(=O)N[C@@H](CC(C)C)C(=O)N[C@H](C(=O)N[C@@H](CCCNC(=N)N)C(N)=O)[C@@H](C)O [Compound 164] (X10-WNLVRIGLTR-NH2) | 12 µM | ≥ 50 µM
8 | CCCCC(=O)N[C@@H](Cc1c[nH]c2ccccc12)C(=O)N[C@@H](CC(N)=O)C(=O)N[C@@H](CC(C)C)C(=O)N[C@H](C(=O)N[C@@H](CCCNC(=N)N)C(=O)N[C@H](C(=O)NCC(=O)N[C@@H](CC(C)C)C(=O)N[C@@H](CO)C(=O)N[C@@H](CCCNC(=N)N)C(N)=O)[C@@H](C)CC)C(C)C [Compound 181] (Pentanoyl-WNLVRIGLSR-NH2) | 8.9 µM | ≥ 50 µM
9 | CC[C@H](C)[C@H](NC(=O)[C@H](CCCNC(=N)N)NC(=O)[C@@H](NC(=O)[C@H](CC(C)C)NC(=O)[C@H](CC(N)=O)NC(=O)[C@H](Cc1c[nH]c2ccccc12)NC(=O)C1CCC(c2ccccc2)CC1)C(C)C)C(=O)NCC(=O)N[C@@H](CC(C)C)C(=O)N[C@H](C(=O)N[C@@H](CCCNC(=N)N)C(N)=O)[C@@H](C)O (some centres unmarked) [Compound 185] (X39-WNLVRIGLTR-NH2) | 0.39 µM | 5.7 µM
10 | CC[C@H](C)[C@H](NC(=O)[C@H](CCCCNC(=N)N)NC(=O)[C@@H](NC(=O)[C@H](CC(C)C)NC(=O)[C@H](CC(N)=O)NC(=O)[C@H](Cc1c[nH]c2ccccc12)NC(=O)CCCc1ccc(O)cc1)C(C)C)C(=O)NCC(=O)N[C@@H](CC(C)C)C(=O)N[C@@H](CC(C)C)C(=O)N[C@@H](CCCNC(=N)N)C(N)=O [Compound 220] ({Butanoyl(4-(4-HOPh))}-WNLV[hArg]IGLLR-NH2) | 0.91 µM | 37 µM
11 | CC[C@H](C)[C@H](NC(=O)[C@H](CCCCNC(=N)N)NC(=O)[C@@H](NC(=O)[C@H](CC(C)C)NC(=O)[C@H](CC(N)=O)NC(=O)[C@H](Cc1c[nH]c2ccccc12)NC(=O)CCc1ccc(N)cc1)C(C)C)C(=O)NCC(=O)N[C@@H](CC(C)C)C(=O)N[C@@H](CC(C)C)C(=O)N[C@@H](CCCNC(=N)N)C(N)=O [Compound 218] (X29-WNLV[hArg]IGLLR-NH2) | 0.26 µM | 5 µM
12 | CC[C@H](C)[C@H](NC(=O)[C@H](CCCNC(=N)N)NC(=O)[C@@H](NC(=O)[C@H](CC(C)C)NC(=O)[C@H](CC(N)=O)NC(=O)[C@H](Cc1c[nH]c2ccccc12)NC(=O)CCn1cncn1)C(C)C)C(=O)NCC(=O)N[C@@H](CC(C)C)C(=O)N[C@@H](CC(C)C)C(=O)N[C@@H](CCCNC(=N)N)C(N)=O [Compound 142] (X41-WNLVRIGLLR-NH2) | 15 µM | ≥ 50 µM
13 | CC[C@H](C)[C@H](NC(=O)[C@H](CCCCNC(=N)N)NC(=O)[C@@H](NC(=O)[C@H](CC(C)C)NC(=O)[C@H](CC(N)=O)NC(=O)[C@H](Cc1c[nH]c2ccccc12)NC(=O)CCc1ccc(O)c(OC)c1)C(C)C)C(=O)NCC(=O)N[C@@H](CC(C)C)C(=O)N[C@@H](CC(C)C)C(=O)N[C@@H](CC(N)=O)C(N)=O [Compound 238] (X25-WNLV[hArg]IGLLN-NH2) | 0.33 µM | 7.7 µM
14 | CC[C@H](C)[C@H](NC(=O)[C@H](CCCNC(=N)N)NC(=O)[C@@H](NC(=O)[C@H](CC(C)C)NC(=O)[C@H](CC(N)=O)NC(=O)[C@H](Cc1c[nH]c2ccccc12)NC(=O)CCN1CCOCC1)C(C)C)C(=O)NCC(=O)N[C@@H](CC(C)C)C(=O)N[C@@H](CC(C)C)C(=O)N[C@@H](CCCNC(=N)N)C(N)=O [Compound 137] (X32-WNLVRIGLLR-NH2) | 6.7 µM | ≥ 50 µM
15 | CC[C@H](C)[C@H](NC(=O)[C@H](CCCNC(=N)N)NC(=O)[C@@H](NC(=O)[C@H](CC(C)C)NC(=O)[C@H](CC(N)=O)NC(=O)[C@H](Cc1c[nH]c2ccccc12)NC(=O)CCc1c[nH]cn1)C(C)C)C(=O)NCC(=O)N[C@@H](CC(C)C)C(=O)N[C@@H](CC(C)C)C(=O)N[C@@H](CCCNC(=N)N)C(N)=O [Compound 132] (Desaminohistidyl-WNLVRIGLLR-NH2) | 9 µM | ≥ 50 µM
16 | CC[C@H](C)[C@H](NC(=O)[C@H](CCCNC(=N)N)NC(=O)[C@@H](NC(=O)[C@H](CC(C)C)NC(=O)[C@H](CC(N)=O)NC(=O)[C@H](Cc1c[nH]c2ccccc12)NC(=O)CCCOc1ccc(Br)cc1)C(C)C)C(=O)NCC(=O)N[C@@H](CC(C)C)C(=O)N[C@H](C(=O)N[C@@H](CCCNC(=N)N)C(N)=O)[C@@H](C)O [Compound 182] (X11-WNLVRIGLTR-NH2) | 4 µM | 14 µM
17 | CC[C@H](C)[C@H](NC(=O)[C@H](CCCNC(=N)N)NC(=O)[C@@H](NC(=O)[C@H](CC(C)C)NC(=O)[C@H](CC(N)=O)NC(=O)[C@H](Cc1c[nH]c2ccccc12)NC(=O)C1CCC(c2ccccc2)CC1)C(C)C)C(=O)NCC(=O)N[C@@H](CC(C)C)C(=O)N[C@@H](CC(C)C)C(=O)N[C@@H](CCCNC(=N)N)C(N)=O (some centres unmarked) [Compound 147] (X39-WNLVRIGLLR-NH2) | 0.41 µM | 2.6 µM
18 | CC[C@H](C)[C@H](NC(=O)[C@H](CCCNC(=N)N)NC(=O)[C@@H](NC(=O)[C@H](CC(C)C)NC(=O)[C@H](CC(N)=O)NC(=O)[C@H](Cc1c[nH]c2ccccc12)NC(=O)CCn1nc(C)cc1C)C(C)C)C(=O)NCC(=O)N[C@@H](CC(C)C)C(=O)N[C@@H](CC(C)C)C(=O)N[C@@H](CCCNC(=N)N)C(N)=O [Compound 136] (X19-WNLVRIGLLR-NH2) | 9 µM | ≥ 50 µM
19 | CC[C@H](C)[C@H](NC(=O)[C@H](CCCNC(=N)N)NC(=O)[C@@H](NC(=O)[C@H](CC(C)C)NC(=O)[C@H](CC(N)=O)NC(=O)[C@H](Cc1c[nH]c2ccccc12)NC(=O)CC(C)CC(C)(C)C)C(C)C)C(=O)NCC(=O)N[C@@H](CC(C)C)C(=O)N[C@@H](CC(C)C)C(=O)N[C@@H](CCCNC(=N)N)C(N)=O (some centres unmarked) [Compound 149] (X40-WNLVRIGLLR-NH2) | 8.9 µM | 11 µM
20 | CC[C@H](C)[C@H](NC(=O)[C@H](CCCNC(=N)N)NC(=O)[C@@H](NC(=O)[C@H](CC(C)C)NC(=O)[C@H](CC(N)=O)NC(=O)[C@H](Cc1c[nH]c2ccccc12)NC(=O)CCCNC(=O)OCc1ccccc1)C(C)C)C(=O)NCC(=O)N[C@@H](CC(C)C)C(=O)N[C@H](C(=O)N[C@@H](CCCNC(=N)N)C(N)=O)[C@@H](C)O [Compound 169] ({Cbz-GABA}-WNLVRIGLTR-NH2) | 6.8 µM | ≥ 50 µM
21 | CC[C@H](C)[C@H](NC(=O)[C@H](CCCNC(=N)N)NC(=O)[C@@H](NC(=O)[C@H](CC(C)C)NC(=O)[C@H](CC(N)=O)NC(=O)[C@H](Cc1c[nH]c2ccccc12)NC(=O)CCc1c[nH]c2ccccc12)C(C)C)C(=O)NCC(=O)N[C@@H](CC(C)C)C(=O)N[C@H](C(=O)N[C@@H](CCCNC(=N)N)C(N)=O)[C@@H](C)O [Compound 189] ({Propanoyl(3-indol-3-yl)}-WNLVRIGLTR-NH2) | 12 µM | 38 µM
22 | CC[C@H](C)[C@H](NC(=O)[C@H](CCCCNC(=N)N)NC(=O)[C@@H](NC(=O)[C@H](CC(C)C)NC(=O)[C@H](CC(N)=O)NC(=O)[C@H](Cc1c[nH]c2ccccc12)NC(=O)[C@H]1C[C@@H]1c1cccnc1)C(C)C)C(=O)NCC(=O)N[C@@H](CC(C)C)C(=O)N[C@@H](CC(C)C)C(=O)N[C@@H](CCCNC(=N)N)C(N)=O [Compound 225] (X17-WNLV[hArg]IGLLR-NH2) | 1.8 µM | 27 µM
